Test results published in patent publication US9969742B2, “Imidazotriazinone compounds” (Ironwood Pharmaceuticals, Inc., priority 2012, dated 2018).
Like-named read-outs stand apart in the source and are kept apart here.

Legend:
Assay type in all cases: biochemical
[1] = biological target: T1, PDE9A2 (Homo sapiens, UniProt O76083); assay: Phosphodiesterase enzyme screening assay, PDE9A2
T1 construct: purchased Reaction Biology Corporation, Malvern, Pa
Method in brief: (§1)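 Human PDE isoforms were incubated 1 h at room temperature with 4.0 μM fluorescent cGMP substrate in 100 mM HEPES pH 7.5, 5 mM MgCl2, 1 mM DTT, 0.003% Brij. EDTA stop buffer ended reactions, and substrate and 5′-GMP product were separated by microfluidic electrophoretic mobility shift with laser-induced fluorescence. Inhibition was calculated against control wells.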

[2] = biological target: T2, PDE1A (Homo sapiens, UniProt P54750); assay: Phosphodiesterase enzyme screening assay, PDE1A; conditions: value greater than 1 indicates greater selectivity for PDE9A2
T2 construct: purchased Reaction Biology Corporation, Malvern, Pa
T2 sequence (P54750 whole entry): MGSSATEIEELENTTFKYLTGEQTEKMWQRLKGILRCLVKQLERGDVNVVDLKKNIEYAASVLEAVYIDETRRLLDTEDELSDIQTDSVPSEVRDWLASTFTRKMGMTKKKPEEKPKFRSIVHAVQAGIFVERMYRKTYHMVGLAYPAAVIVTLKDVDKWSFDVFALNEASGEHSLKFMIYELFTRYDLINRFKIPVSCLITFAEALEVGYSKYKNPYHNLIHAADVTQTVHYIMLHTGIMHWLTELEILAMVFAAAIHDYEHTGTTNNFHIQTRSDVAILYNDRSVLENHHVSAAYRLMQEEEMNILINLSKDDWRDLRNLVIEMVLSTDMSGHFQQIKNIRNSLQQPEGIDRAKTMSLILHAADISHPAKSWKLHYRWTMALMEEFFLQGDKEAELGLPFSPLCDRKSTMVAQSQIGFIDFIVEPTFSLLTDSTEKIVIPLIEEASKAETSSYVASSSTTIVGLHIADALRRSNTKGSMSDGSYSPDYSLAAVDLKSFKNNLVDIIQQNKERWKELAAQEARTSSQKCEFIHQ
Method in brief: as §1

[3] = biological target: T3, PDE1B (Homo sapiens, UniProt Q01064); assay: Phosphodiesterase enzyme screening assay, PDE1B; conditions: value greater than 1 indicates greater selectivity for PDE9A2
T3 construct: purchased Reaction Biology Corporation, Malvern, Pa
T3 sequence (Q01064 whole entry): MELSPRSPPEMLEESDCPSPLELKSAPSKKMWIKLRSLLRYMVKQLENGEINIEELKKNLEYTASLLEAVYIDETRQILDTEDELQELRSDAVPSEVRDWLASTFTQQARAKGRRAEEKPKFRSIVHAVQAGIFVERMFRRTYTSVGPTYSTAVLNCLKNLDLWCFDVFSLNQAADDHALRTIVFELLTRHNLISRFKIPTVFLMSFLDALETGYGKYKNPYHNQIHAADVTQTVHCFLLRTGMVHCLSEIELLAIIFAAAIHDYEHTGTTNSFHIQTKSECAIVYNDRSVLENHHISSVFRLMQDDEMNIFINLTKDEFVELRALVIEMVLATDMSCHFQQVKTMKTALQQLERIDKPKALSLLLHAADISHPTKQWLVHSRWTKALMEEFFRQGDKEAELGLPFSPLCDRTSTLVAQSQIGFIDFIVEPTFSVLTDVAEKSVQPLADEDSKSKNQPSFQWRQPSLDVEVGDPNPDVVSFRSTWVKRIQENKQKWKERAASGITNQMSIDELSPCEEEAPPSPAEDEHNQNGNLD
Method in brief: as §1

[4] = IC50 band, 4.0 μM cGMP substrate, 1 hour at R.T.
[5] = ratio of IC50 values PDE1A vs PDE9A2
[6] = ratio of IC50 values PDE1B vs PDE9A2
[7] = ratio of IC50 values, PDE1A versus PDE9A2
[8] = ratio of IC50 values, PDE1B versus PDE9A2
[9] = Table 1, 10 concentrations, 4.0 μM cGMP substrate, 1 hour at R.T., read-out: Band (PDE9A2 IC50)

T1 sequence (O76083 1-533 isoform O76083-2): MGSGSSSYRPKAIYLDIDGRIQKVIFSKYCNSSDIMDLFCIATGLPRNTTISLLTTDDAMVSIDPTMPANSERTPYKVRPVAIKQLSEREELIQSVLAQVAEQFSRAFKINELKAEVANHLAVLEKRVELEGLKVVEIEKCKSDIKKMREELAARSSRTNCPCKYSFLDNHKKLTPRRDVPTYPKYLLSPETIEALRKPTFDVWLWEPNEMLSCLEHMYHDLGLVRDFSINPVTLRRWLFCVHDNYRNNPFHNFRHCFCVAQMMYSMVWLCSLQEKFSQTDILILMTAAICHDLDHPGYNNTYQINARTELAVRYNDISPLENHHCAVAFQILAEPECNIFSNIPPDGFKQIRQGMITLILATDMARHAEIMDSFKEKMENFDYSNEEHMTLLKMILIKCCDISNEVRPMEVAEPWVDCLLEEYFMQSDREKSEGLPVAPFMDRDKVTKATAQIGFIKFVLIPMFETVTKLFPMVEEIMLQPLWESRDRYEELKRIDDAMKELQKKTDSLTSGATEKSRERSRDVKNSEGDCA

Row | Compound | IC50 [1, 4] [µM] | PDE1A selectivity (versus PDE9A2) [2, 5] | PDE1B selectivity (versus PDE9A2) [3, 6] | IC50 ([1]; read-out: Band (PDE9A2 IC50)) [µM] | PDE1A selectivity (versus PDE9A2) [2, 7] | PDE1B selectivity (versus PDE9A2) [3, 8] | further results
1 | Cc1ccc(F)cc1-c1ncc2c(=O)[nH]c(C3CN(Cc4cn5ccccc5n4)CC3C)nn12 (single isomer, unassigned; (+)) [(+)-7-(5-fluoro-2-methylphenyl)-2-((3,4-trans)-1-(imidazo[1,2-a]pyridin-2-ylmethyl)-4-methylpyrrolidin-3-yl)imidazo[5,1-f][1,2,4]triazin-4(3H)-one] | < 1 | 1437 | 1427 |  |  |  | 
2 | Cc1ccc(F)cc1-c1ncc2c(=O)[nH]c(C3CN(Cc4cnccn4)CC3C)nn12 (single isomer, unassigned; (+)) [(+)-7-(5-fluoro-2-methylphenyl)-2-((3,4-trans)-4-methyl-1-(pyrazin-2-ylmethyl)pyrrolidin-3-yl)imidazo[5,1-f][1,2,4]triazin-4(3H)-one] | < 1 | 85 | 74 |  |  |  | 
3 | Cc1ccc(F)cc1-c1ncc2c(=O)[nH]c(C3CN(Cc4ccccn4)CC3C)nn12 (single isomer, unassigned; (+)) [(+)-7-(5-fluoro-2-methylphenyl)-2-((3,4-trans)-4-methyl-1-(pyridin-2-ylmethyl)pyrrolidin-3-yl)imidazo[5,1-f][1,2,4]triazin-4(3H)-one] | < 1 | 560 | 277 |  |  |  | 
4 | CC1CN(Cc2ccc(F)cc2)CC1c1nn2c(C3CCC(F)(F)CC3)ncc2c(=O)[nH]1 (single isomer, unassigned; (+)) [(+)-(4,4-difluorocyclohexyl)-2-((3,4-trans)-1-(4-fluorobenzyl)-4-methylpyrrolidin-3-yl)imidazo[5,1-f][1,2,4]triazin-4(3H)-one] |  |  |  |  |  |  | IC50 [1, 9]: < 1 µM; PDE1A selectivity (versus PDE9A2) ([2]; Table 1, ratio of IC50 values): 1453; PDE1B selectivity (versus PDE9A2) ([3]; Table 1, ratio of IC50 values): 2980
5 | CC1CN(C)CC1c1nn2c(C3CCOCC3)ncc2c(=O)[nH]1 (single isomer, unassigned; (+)) [(+)-((3,4-trans)-1,4-dimethylpyrrolidin-3-yl)-7-(tetrahydro-2H-pyran-4-yl)imidazo[5,1-f][1,2,4]triazin-4(3H)-one] |  |  |  |  |  |  | IC50 [1, 9]: < 1 µM; PDE1A selectivity (versus PDE9A2) ([2]; Table 1, ratio of IC50 values): 75; PDE1B selectivity (versus PDE9A2) ([3]; Table 1, ratio of IC50 values): 121

More lines, main results first:

Row | IC50 [1, 4] [µM] | PDE1A selectivity (versus PDE9A2) [2, 5] | PDE1B selectivity (versus PDE9A2) [3, 6] | IC50 ([1]; read-out: Band (PDE9A2 IC50)) [µM] | PDE1A selectivity (versus PDE9A2) [2, 7] | PDE1B selectivity (versus PDE9A2) [3, 8] | Compound | further results
6 | < 1 | 770 | 505 |  |  |  | Cc1ccc(F)cc1-c1ncc2c(=O)[nH]c(C3CN(Cc4cccnc4)CC3C)nn12 (single isomer, unassigned; (+)) [(+)-7-(5-fluoro-2-methylphenyl)-2-((3,4-trans)-4-methyl-1-(pyridin-3-ylmethyl)pyrrolidin-3-yl)imidazo[5,1-f][1,2,4]triazin-4(3H)-one] | 
7 |  |  |  | < 1 | 41 | 104 | CC1CN(Cc2ccc(F)cc2)CC1c1nn2c(C3CCCC3)ncc2c(=O)[nH]1 (single isomer, unassigned; (+)) [(+)-7-cyclopentyl-2-((3,4-trans)-1-(4-fluorobenzyl)-4-methylpyrrolidin-3-yl)imidazo[5,1-f][1,2,4]triazin-4(3H)-one] | 
8 |  |  |  | < 1 | 57 | 125 | CC1CN(Cc2cn3ccccc3n2)CC1c1nn2c(C3CCCC3)ncc2c(=O)[nH]1 (single isomer, unassigned; (+)) [(+)-7-cyclopentyl-2-((3,4-trans)-1-(imidazo[1,2-a]pyridin-2-ylmethyl)-4-methylpyrrolidin-3-yl)imidazo[5,1-f][1,2,4]triazin-4(3H)-one] | 
9 |  |  |  | < 1 | 60 | 45 | CC1CN(Cc2ncccn2)CC1c1nn2c(C3CCCC3)ncc2c(=O)[nH]1 (single isomer, unassigned; (+)) [(+)-7-cyclopentyl-2-((3,4-trans)-4-methyl-1-(pyrimidin-2-ylmethyl)pyrrolidin-3-yl)imidazo[5,1-f][1,2,4]triazin-4(3H)-one] | 
